Test systems include SNB-78 CNS; KM20L2 colon; HS 578T breast; MDA-N; MDA-MB-231 breast; DU-145 prostate; PC-3 prostate.
Common to all, as to assay: NCI tumour cell line growth inhibition, 48 h

This note sets out measurements from PubChem BioAssay (NCI).

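Where inhibition never reached the appropriate level, the endpoint shown equals the highest concentration tested. Otherwise, values were interpolated linearly from a five-concentration, 48-hour dose response in 96-well plates. Here, GI50 denotes the concentration required for 50% inhibition of growth. TGI: concentration producing complete growth inhibition.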 Where only a bound is given, the exact number is not on record here.

Turning to `CC1C=CC(=O)C(n2cc(F)c(=O)[nH]c2=O)O1` (configuration not stated), the TGI with SNB-78 CNS was 83.8 µM; with KM20L2 colon it was 37.5 µM.
For `C[C@@]12CCC(=O)C=C1CC[C@H]1C2=CC[C@]2(C)C1CC[C@@]2(C)O` (some centres not stated), the TGI in the test with HS 578T breast, in the test with MDA-N, in the test on MDA-MB-231 breast, with DU-145 prostate and in the test with PC-3 prostate was above 100 µM throughout.
For `CC(C)(C)C(=O)C1CC(=O)c2ccccc2C1=O` (configuration not stated), the TGI in the test with SNB-78 CNS was 90.7 µM; with KM20L2 colon it was above 100 µM.
For the compound `COc1ccc(-c2ccc(C3CC(c4ccc(Cl)cc4)=NN3)o2)c([N+](=O)[O-])c1` (configuration not stated), the GI50 in the test on HS 578T breast, with MDA-MB-231 breast, with DU-145 prostate and with PC-3 prostate was above 100 µM throughout. Also, the TGI with HS 578T breast, with MDA-MB-231 breast, with DU-145 prostate and with PC-3 prostate was above 100 µM each time.
As to `COC(=O)C1=C(C(=O)OC)C23C=C(C)C1C2=C(C)C1(CC1)[C@@](C)(O)C3=O` (some centres not stated), the GI50 with HS 578T breast is 1.37 µM; with MDA-MB-231 breast, 0.309 µM; in the test with DU-145 prostate it was 0.197 µM; in the test on PC-3 prostate it was 0.386 µM. Also, the TGI was 7.61 µM in the test with HS 578T breast, 1.56 µM in the test with MDA-MB-231 breast, above 100 µM with DU-145 prostate and 32.9 µM in the test on PC-3 prostate.
On to `COc1ccc(-c2nc(-c3nc4ccc(OC)cc4[nH]3)cc3c2[nH]c2ccccc23)cc1`, for which the GI50 with HS 578T breast is 2.85 µM; with MDA-MB-231 breast it was 8.51 µM; with DU-145 prostate it was 2.06 µM; with PC-3 prostate, 1.52 µM. Besides, the TGI in the test with HS 578T breast, in the test on MDA-MB-231 breast, in the test on DU-145 prostate and with PC-3 prostate was above 100 µM each time.
Take `COc1cc2nc(Nc3cccc(F)c3)nc(Nc3cc(C)[nH]n3)c2cc1OC`: the GI50 was 1.86 µM in the test on HS 578T breast, 1.74 µM in the test on MDA-MB-231 breast, 1.64 µM in the test on DU-145 prostate and 1.68 µM in the test on PC-3 prostate. The TGI in the test on HS 578T breast was 4.01 µM; in the test on MDA-MB-231 breast it was 3.42 µM; in the test on DU-145 prostate, 3 µM; in the test on PC-3 prostate, 3.39 µM.
For `CN(C)CCCc1c[nH]c2ccccc12`, the TGI with HS 578T breast, in the test with MDA-N, in the test on MDA-MB-231 breast, in the test with DU-145 prostate and in the test with PC-3 prostate was above 100 µM throughout.
Regarding `NS(=O)(=O)c1ccc(CCN=C=S)cc1`, the GI50 with HS 578T breast is 3.21 µM; in the test with MDA-MB-231 breast, 2.03 µM; in the test on DU-145 prostate, 1.8 µM; in the test with PC-3 prostate, 2.03 µM. Also, the TGI was 15.5 µM in the test on HS 578T breast, 4.4 µM in the test on MDA-MB-231 breast, 3.83 µM in the test on DU-145 prostate and 5.23 µM in the test on PC-3 prostate.
On to `CCOC(=O)c1c(C(F)(F)F)n([O-])c2ccc(OC)cc2[n+]1=O`, for which the GI50 with HS 578T breast is 4.07 µM; with MDA-MB-231 breast, 5.38 µM; in the test on DU-145 prostate, 5.15 µM; with PC-3 prostate, 2.99 µM. Moreover, the TGI is 46.2 µM in the test with HS 578T breast, 51.6 µM with MDA-MB-231 breast, above 100 µM in the test with DU-145 prostate and above 100 µM with PC-3 prostate.
Consider `Nc1c(C(=O)Nc2ccccc2Cl)sc2nc3c(cc12)CCCCCC3`, for which the GI50 in the test with HS 578T breast was 2.9 µM; with MDA-MB-231 breast, 2.24 µM; with DU-145 prostate, 7.84 µM; in the test with PC-3 prostate, 15.4 µM. Further, the TGI was 14.6 µM in the test with HS 578T breast, 14.1 µM in the test on MDA-MB-231 breast, above 100 µM in the test on DU-145 prostate and above 100 µM in the test on PC-3 prostate.
Regarding `CCCCCCCC[N+](C)(CCCCCCCC)CCCCCCCC`, the GI50 was 0.471 µM in the test on HS 578T breast, 0.338 µM in the test with MDA-MB-231 breast, 0.414 µM in the test on DU-145 prostate and 0.24 µM in the test on PC-3 prostate. The TGI stood at 2.99 µM with HS 578T breast, 1.26 µM in the test on MDA-MB-231 breast, 1.41 µM in the test with DU-145 prostate and 1.02 µM with PC-3 prostate.
Take `O=C(/C=C\c1ccc(Cl)cc1Cl)c1cccs1`: the TGI in the test with HS 578T breast amounted to 75.3 µM; in the test on MDA-N, 35.8 µM; with MDA-MB-231 breast it was 40.5 µM; in the test on DU-145 prostate, 44.9 µM; with PC-3 prostate it was 35.2 µM.
Regarding `COc1ccc([N+](=O)[O-])c(S(=O)(=O)c2ccc(Cl)cc2)n1`, the GI50 with HS 578T breast was 13 µM; with MDA-MB-231 breast, 2.83 µM; with DU-145 prostate it was 9.63 µM; in the test with PC-3 prostate, 17.3 µM. Moreover, the TGI in the test with HS 578T breast worked out at 51.1 µM; in the test with MDA-MB-231 breast it was 7.43 µM; in the test with DU-145 prostate, 21.3 µM; in the test on PC-3 prostate, 33.8 µM.
For the compound `CCCc1nc2c(C)cc(-c3nc4ccccc4n3C)cc2n1Cc1ccc(-c2ccccc2C(=O)O)cc1`, the GI50 was 38.1 µM with HS 578T breast, 30.3 µM in the test on MDA-MB-231 breast, 44 µM in the test with DU-145 prostate and 29.4 µM in the test with PC-3 prostate. For the same compound, the TGI in the test with HS 578T breast, in the test on MDA-MB-231 breast, in the test with DU-145 prostate and in the test with PC-3 prostate was above 100 µM each time.
Turning to `NCCNC(=S)S`, the TGI is 43 µM in the test with HS 578T breast; above 100 µM in the test on MDA-N; above 100 µM in the test on MDA-MB-231 breast; above 100 µM with DU-145 prostate; above 100 µM with PC-3 prostate.
`Cc1[nH]c(=O)[nH]c(=O)c1CO`: the GI50 with HS 578T breast, in the test on MDA-MB-231 breast, in the test with DU-145 prostate and with PC-3 prostate was above 100 µM each time. In addition, the TGI in the test on HS 578T breast, in the test on MDA-MB-231 breast, in the test on DU-145 prostate and in the test on PC-3 prostate was above 100 µM in each case.
Consider `COc1ccc2c(c1)CCC1C2CC[C@]2(C)/C(=N/OC(=O)Cc3ccccc3)CCC12` (some centres not stated), for which the GI50 in the test on HS 578T breast is 28.6 µM; with MDA-MB-231 breast, 17.3 µM; with DU-145 prostate, 28.6 µM; in the test on PC-3 prostate, 18.5 µM. The TGI in the test with HS 578T breast worked out at 70 µM; in the test on MDA-MB-231 breast it was 38.6 µM; with DU-145 prostate, 69.2 µM; in the test on PC-3 prostate it was 59.4 µM.
For `COc1cc(/C=C2\COc3ccc(O)c(O)c3C2=O)cc(OC)c1`, the GI50 is 2.66 µM in the test with HS 578T breast, 2.47 µM in the test on MDA-MB-231 breast, 1.71 µM with DU-145 prostate and 1.61 µM in the test with PC-3 prostate. In addition, the TGI turned out to be 17.1 µM in the test with HS 578T breast, 10.6 µM in the test on MDA-MB-231 breast, 4.26 µM in the test with DU-145 prostate and 7.85 µM in the test on PC-3 prostate.
Regarding `COc1cc(-c2cc(-c3nc4ccc(Cl)cc4[nH]3)[nH]n2)cc(OC)c1OC`, the GI50 in the test with HS 578T breast was 3.58 µM; in the test on MDA-MB-231 breast, 3.94 µM; with DU-145 prostate, 3.27 µM; in the test on PC-3 prostate, 2.47 µM. The TGI with HS 578T breast came to 45.5 µM; in the test with MDA-MB-231 breast, 24.3 µM; with DU-145 prostate it was 13.4 µM; in the test on PC-3 prostate, 8.29 µM.
For `NCc1nnn(Cc2ccccc2)c1N`, the TGI in the test on HS 578T breast, with MDA-N, in the test with MDA-MB-231 breast, with DU-145 prostate and with PC-3 prostate was above 100 µM each time.
As to `COc1ccc(/C=C/c2n[nH]c3ccc(N4CCOC4=O)cc23)cc1`, the GI50 in the test with HS 578T breast is 3.23 µM; in the test with MDA-MB-231 breast it was 2.98 µM; with DU-145 prostate, 3.43 µM; in the test on PC-3 prostate it was 3.22 µM. The TGI with HS 578T breast is 9.59 µM; in the test on MDA-MB-231 breast, 9.8 µM; with DU-145 prostate, above 100 µM; in the test on PC-3 prostate, 11.2 µM.
Regarding `COc1ccc(/C(C)=N/OC(=O)c2c(-c3ccccc3Cl)noc2C)cc1CN1CCOCC1`, the TGI is above 100 µM with HS 578T breast; 39.9 µM with MDA-N; 66.5 µM with MDA-MB-231 breast; above 100 µM with DU-145 prostate; 98.1 µM with PC-3 prostate.
`COC(=O)CCC/C=C\C[C@H]1C=CC(=O)/C1=C/C[C@@H](O)C/C=C\CC(F)(F)F`: the GI50 was 8.98 µM in the test with HS 578T breast, 2.72 µM with MDA-MB-231 breast, 3.89 µM in the test on DU-145 prostate and 2.79 µM in the test with PC-3 prostate. For the same compound, the TGI in the test with HS 578T breast was 70.3 µM; in the test on MDA-MB-231 breast it was 7.41 µM; with DU-145 prostate it was 14.7 µM; with PC-3 prostate, 7.31 µM.
For `C=C(C)[C@@H]1CC[C@]2(C)[C@H](CC[C@@H]3[C@H]4[C@H]5OC[C@@]4(CCC5(C)C)CC[C@]32C)[C@@]1(C)CCCN`, the GI50 was 2.1 µM in the test on HS 578T breast, 1.84 µM in the test with MDA-MB-231 breast, 1.86 µM in the test on DU-145 prostate and 1.74 µM in the test on PC-3 prostate. Further, the TGI with HS 578T breast is 4.61 µM; with MDA-MB-231 breast it was 3.54 µM; with DU-145 prostate, 3.36 µM; in the test on PC-3 prostate, 3.29 µM.
For `NS(=O)(=O)c1ccc(N2N=C3c4ccccc4CC3C2c2ccc(Cl)cc2)cc1` (configuration not stated), the GI50 with HS 578T breast was 4.61 µM; in the test with MDA-MB-231 breast, 2.89 µM; in the test with DU-145 prostate, 14.2 µM; in the test on PC-3 prostate, 7.17 µM. The TGI in the test with HS 578T breast was 19.2 µM; in the test with MDA-MB-231 breast, 8.24 µM; in the test with DU-145 prostate it was 36.7 µM; in the test with PC-3 prostate, 22.6 µM.
The compound `CN(C)CCNC(=O)c1cccc2[nH]c(-c3ccccc3)nc12` returned a TGI with SNB-78 CNS above 100 µM.
Regarding `CCOC(=O)c1sc(Nc2ccc(Cl)cc2)nc1C`, the GI50 is 2.22 µM with HS 578T breast, 1.08 µM in the test with MDA-MB-231 breast, 2.47 µM in the test on DU-145 prostate and 1.37 µM in the test with PC-3 prostate. Besides, the TGI in the test with HS 578T breast was found to be 6.2 µM; with MDA-MB-231 breast it was 2.61 µM; in the test with DU-145 prostate, 9.04 µM; in the test with PC-3 prostate, 3.42 µM.
